From US20040063662A1, “Selenophene anti-tumor agents” (priority 1996, published 2004)
Values after ≈ are worked out from the molar mass of the structure shown. Values joined by “and” are separate entries in the source; they are usually repeats but may differ in a detail not shown here. Equal entries are not always repeated. Where two headings read alike, the source gives them in different places.

Tests used:
[1] = tested on: normal human renal cells (RPTEC); assay: Selective cytotoxicity microculture assay, normal human renal cells; type: cell-based
[2] = tested on: ras-transformed human bronchial epithelial cells (TBE); assay: Selective cytotoxicity microculture assay, ras-transformed bronchial epithelial cells; type: cell-based
[3] = tested on: human renal carcinoma cells (A-498); assay: Selective cytotoxicity microculture assay, human renal carcinoma
[4] = molecular target: T1, 50:50 mixture of recombinant mouse PKCα and mouse PKCβ2; assay: Protein Kinase C (PKC) screening assay; type: biochemical; conditions: Inhibition of Protein Kinase C
T1 construct: The enzymes are expressed in Sf9 insect cells from recombinant baculovirus and partially purified on DEAE-cellulose and Sephacryl 200 gel filtration
Description: The Protein Kinase C (PKC) screening assay utilized in the following experiments is similar to standard PKC assays used by many investigators. Its primary features are that 1) the assay utilizes a 50:50 mixture of recombinant mouse PKCα and mouse PKCβ2; 2) employs histone as phosphate-accepting substrate; and 3) the PKC enzymatic activity is activated with phosphatidylserine, TPA and low concentration of calcium, so that both calcium and TPA are somewhat limiting for the extent of activation. In this manner the assay is sensitive to inhibitors of PKC activation. A more detailed description of the assay is provided in the following paragraphs.
The recombinant PKC formulation is a mixture (equal parts by activity) of mouse PKCα and mouse PKCβ2. The enzymes are expressed in Sf9 insect cells from recombinant baculovirus and partially purified on DEAE-cellulose and Sephacryl 200 gel filtration. Sufficient PKC is added to each reaction to provide approximately 4 pmols phosphate transferred in 30 minute (per total reaction.) The reaction is linear over the time when 4 pmols of phosphate is transferred and the reaction remains linear well beyond this time frame.
The PKC screening assay is performed in 96 well polystyrene U bottom micro titer plates, in a total reaction volume of 50 ul. Solution manipulations are performed during the assay utilize a Rainin, motorized EDP-plus M8 eight-channel micropipettor.
In some cases 50% DMSO:water, water, or methanol is substituted (if essential) for the solvent. At least 25 μl of the highest concentration sample to be assayed is transferred to a well in a 96 well U-bottom polystyrene assay plate. Serial 5-fold or 10-fold dilutions (depending on the dose-range desired) are made using the EDP-plus M8 eight-channel pipettor in dilute mode and mixing by repipetting. Using the 8-channel pipettor, 2 μl of each dilution is transferred to the appropriate wells of the plate(s) to be used for each assay. Duplicate assays are performed for each dose, with each assay, allowing six wells (half the row) for three-dose assays, or 12 wells (the whole row) for six-dose assays. In general, extracts and fractions are assayed at three doses: 400, 40 an 4 ug/ml, while pure compounds are tested at six doses: 400, 80, 16, 3.2, 0.64, 0.128 ([…]).

[5] = Selective cytotoxicity microculture assay, human renal carcinoma; conditions: human, SCI (selectively cytotoxicity index), GI50 (RPTEC)/GI50 (A-498)
[6] = In vitro activity of glycoside prodrug (preliminary); type: cell-based; conditions: preliminary results
Description: (§1) a. […] Scheme 8 illustrates a procedure utilized for the synthesis of glucoside, galactoside or, glucuronic acid analogs of α-terselenophene: [drawing 60]

[7] = In vivo activity of glycoside prodrug (preliminary); conditions: preliminary results
Description: as §1

[8] = Homo sapiens, RPTEC, read-out: GI50
[9] = Homo sapiens, Epithelial cell, read-out: GI50
[10] = Homo sapiens, A498, A-498 human renal carcinoma

| SMILES | IC50 [4] | GI50 [1, 8] | GI50 [2, 9] | GI50 [3, 10] | selectivity ratio [5] | further results |
| --- | --- | --- | --- | --- | --- | --- |
| c1csc(-c2ccc(-c3ccc[se]3)s2)c1 |  |  |  |  |  | melting point: 103 to 104 °C |
| COc1cccc2c1C(=O)c1c(O)c3c(c(O)c1C2=O)C[C@@](O)(C(=O)CO)C[C@@H]3O[C@H]1C[C@H](N)[C@H](O)[C@H](C)O1 [compound 123127] |  |  |  |  |  | GI50 [1]: 0.05 µg/mL (≈ 0.092 µM); GI50 [2]: 0.03 µg/mL (≈ 0.0552 µM); GI50 ([3]; A-498 human renal carcinoma): 0.05 µg/mL (≈ 0.092 µM); SCI (selectively cytotoxicity index) ([3]; GI50 (RPTEC)/GI50 (A-498)): 1 |
| c1c[se]c(-c2ccc(-c3ccc[se]3)[se]2)c1 [compound 674973] | 7 × 10^0 μg/ml | 4 µg/mL (≈ 10.3 µM) | 4 µg/mL (≈ 10.3 µM) | 3 µg/mL (≈ 7.71 µM) | 1 |  |
| O=Cc1ccc(-c2ccc(-c3ccc[se]3)[se]2)[se]1 [compound 675244] | 1 × 10^0 μg/ml |  |  |  |  |  |
| O=Cc1ccc(-c2ccc(-c3ccc(C=O)[se]3)[se]2)[se]1 [compound 675245] | 1 × 10^0 μg/ml |  |  |  |  |  |
| OCc1ccc(-c2ccc(-c3cccs3)[se]2)s1 [compound 675344] | 50 µg/mL (≈ 154 µM) |  |  |  | > 1000 | GI50 [2]: <10^−2 μg/ml and 7 × 10^−6 μg/ml; GI50 ([3]; A-498 human renal carcinoma): 3e-07 µg/mL and 6e-08 µg/mL |
| O=Cc1ccc(-c2ccc(-c3ccc(C=O)s3)[se]2)s1 [compound 675345] | 0.9 µg/mL (≈ 2.56 µM) |  |  |  |  |  |
| O=Cc1ccc(-c2ccc(-c3cccs3)[se]2)s1 [compound 675346] | 0.5 µg/mL (≈ 1.55 µM) |  |  |  |  |  |
| c1csc(-c2ccc(-c3cccs3)[se]2)c1 [compound 675347] | 1 × 10^0 μg/ml | 20 µg/mL (≈ 67.7 µM) | 10 µg/mL (≈ 33.9 µM) | 30 µg/mL (≈ 102 µM) | < 1 |  |
| c1c[se]c(-c2ccc(-c3ccc[se]3)s2)c1 [compound 676628] | 1 × 10^0 μg/ml | 400 µg/mL (≈ 1170 µM) | 100 µg/mL (≈ 292 µM) | 80 µg/mL (≈ 234 µM) | 5 |  |
| O=Cc1ccc(-c2ccc(-c3ccc[se]3)s2)[se]1 [compound 676629] | 0.2 µg/mL (≈ 0.54 µM) |  |  |  |  |  |
| O=Cc1ccc(-c2ccc(-c3ccc(C=O)[se]3)s2)[se]1 [compound 676630] | 0.9 µg/mL (≈ 2.26 µM) |  |  |  |  |  |
| c1c[se]c(-c2ccc(-c3ccc[se]3)[nH]2)c1 [compound 676633] | 6 × 10^0 μg/ml | 20 µg/mL (≈ 61.5 µM) | 10 µg/mL (≈ 30.8 µM) | 100 µg/mL (≈ 308 µM) | < 1 |  |
| O=Cc1ccc(-c2ccc(-c3ccc[se]3)[nH]2)[se]1 [compound 676634] | 0.8 µg/mL (≈ 2.27 µM) |  |  |  |  | GI50 [2]: 0.0003 µg/mL and 0.006 µg/mL; GI50 ([3]; A-498 human renal carcinoma): 0.0006 µg/mL and 0.003 µg/mL |
| OCc1ccc(-c2ccc(-c3ccc[se]3)[nH]2)[se]1 [compound 676635] | 8 × 10^0 μg/ml | 2 µg/mL (≈ 5.63 µM) | 20 µg/mL (≈ 56.3 µM) | < 0.001 µg/mL | > 1000 |  |
| OC[C@H]1O[C@@H](OCc2ccc(-c3ccc(-c4cccs4)s3)s2)[C@H](O)[C@@H](O)[C@@H]1O [β-D-glucoside of 2-hydroxymethyl-α-terthiophene] |  |  |  |  |  | in vitro activity [6]: retains; in vivo activity [7]: retains |
